Assay results: patent publication US20230330095A1, “PHARMACEUTICAL COMPOSITION FOR ANTI-CANCER COMPRISING NUPR1 ISOFORM A INHIBITOR” (SEOUL NATIONAL UNIVERSITY R&DB FOUNDATION, priority 2022, published 2023)

Assays:
[1] = tested on: NUPR1 isoform A; test: immunochemical analysis of nuclear transfer of NUPR1 isoform A; type: cell-based, human; details: GBM-37, immunochemical analysis
Protocol: (§1) In order to confirm the anticancer efficacy of NUPR1 isoform A inhibitors in brain tumors, experiments were performed using brain tumor patient-derived cell lines obtained from primary glioblastoma patients (GBM-28) and secondary gliosarcoma patients (GBM-37).
First, through immunochemical analysis, it was confirmed that when GBM-37 was treated with 3dc, nuclear transfer of the NUPR1 isoform A was inhibited, as shown in FIG. 6.

[2] = tested on: GBM-37; test: invasion and proliferation assay; type: cell-based, human; details: GBM-37 compared with GBM-28
Protocol: as §1

[3] = tested on: GBM-37; test: cholecystokinin (CCK) measurement after treatment; type: cell-based, human; details: GBM-37 compared with GBM-28
Protocol: as §1
In addition, after treating GBM-28 and GBM-37 with temozolomide and 3dc, respectively, cholecystokinin (CCK) results were measured.

[4] = tested on: Hep3B; test: cell viability, liver cancer cells; type: cell-based; details: as treatment concentration of 3dc increased
From the text: (§2) For liver cancer cells, HepG2 and Hep3B, as the treatment concentration of 3dc, a NUPR1 isoform A inhibitor, increased, cell viability decreased, confirming the anticancer efficacy of 3dc (FIG. 31).

[5] = tested on: HepG2; test: cell viability, liver cancer cells; type: cell-based; details: as treatment concentration of 3dc increased
From the text: as §2

[6] = tested on: HT29; test: mouse model intravitreally injected with colon cancer cells, tumor size; type: in vivo; details: HT29 in Balb/c nude mice, 1 mM 3dc, visually observed after 1, 2, 3 and 4 weeks
Protocol: (§3) In addition, colon cancer cells, HT29 and HCT116 was intravitreal injected into 6-week-old male Balb/c nude mice at 3×10^5 cells/2 μl according to a method disclosed in Lee et al. Experimental & Molecular Medicine (2019) 51:43, and then the tumor size of 1 mM 3dc treatment group (experimental group) and the untreated group (control group) was visually observed after 1 week, 2 weeks, 3 weeks and 4 weeks.

[7] = tested on: HCT116; test: as above; type: in vivo; details: HCT116 in Balb/c nude mice, 1 mM 3dc, visually observed after 1, 2, 3 and 4 weeks
Protocol: as §3

[8] = tested on: NCl-N87; test: cell viability, gastric cancer cells; type: cell-based; details: as treatment concentration of 3dc increased
From the text: (§4) For gastric cancer cells, KATOIII and NCl-N87, as the treatment concentration of 3dc, a NUPR1 isoform A inhibitor, increased, cell viability decreased, confirming the anticancer efficacy of 3dc (FIG. 35).

[9] = tested on: KATOIII; test: cell viability, gastric cancer cells; type: cell-based; details: as treatment concentration of 3dc increased
From the text: as §4

[10] = tested on: HT29; test: cell viability, colon cancer cells; type: cell-based; details: as treatment concentration of 3dc increased
From the text: (§5) For colon cancer cells, HT29 and HCT116, as the treatment concentration of 3dc, a NUPR1 isoform A inhibitor, increased, cell viability decreased, confirming the anticancer efficacy of 3dc (FIG. 22).

[11] = tested on: HCT116; test: cell viability, colon cancer cells; type: cell-based; details: as treatment concentration of 3dc increased
From the text: as §5

[12] = tested on: SK-MEL1; test: cell viability, skin cancer cells; type: cell-based; details: as treatment concentration of 3dc increased
From the text: (§6) For skin cancer cells, A375P and SK-MEL1, as the treatment concentration of 3dc, a NUPR1 isoform A inhibitor, increased, cell viability decreased, confirming the anticancer efficacy of 3dc (FIG. 29).

[13] = tested on: A375P; test: cell viability, skin cancer cells; type: cell-based; details: as treatment concentration of 3dc increased
From the text: as §6

[14] = tested on: GBM-28; test: cell proliferation analysis (MTS assay); type: cell-based, human
Protocol: as §1
(§7) In addition, after treating GBM-28 and GBM-37 with 3dc, cell proliferation analysis (MTS assay) was performed. As a result of treating GBM-28 and GBM-37 with 3dc, respectively, it was confirmed that cell proliferation was inhibited compared to the untreated control group, and compared to the control group overexpressing (OE) NUPR1 isoform A in GBM-28, in the case of i) treating 3dc, ii) transfecting the NUPR1 isoform A with siRNAs of SEQ ID NOs: 5 and 6 (siNUPR1a), and iii) transfecting 3dc-treated NUPR1 isoform A with siRNAs of SEQ ID NOs: 5 and 6, the cell proliferation was all inhibited. In addition, compared to the untreated control GBM-37, in the case of i) transfecting the NUPR1 isoform A with siRNAs of SEQ ID NOs: 5 and 6 and ii) transfecting 3dc-trated NUPR1 isoform A with siRNAs of SEQ ID NOs: 5 and 6, the cell proliferation was all inhibited, confirming that 3dc inhibited the proliferation ability of brain tumor cells expressing the NUPR1 isoform A (FIG. 11).

[15] = tested on: GBM-37; test: cell proliferation analysis (MTS assay); type: cell-based, human; details: compared to untreated control
Protocol: as §1, §7

[16] = tested on: GBM-37; test: cDNA microarray transcriptome analysis; type: cell-based, human
Protocol: In addition, GBM-37 was treated with 100 nM of 3dc, and transcriptome changes were confirmed through cDNA microarray analysis.

[17] = tested on: MCF7; test: cell viability, breast cancer cells; type: cell-based; details: as treatment concentration of 3dc increased
From the text: (§8) For breast cancer cells, BT-20 and MCF7, as the treatment concentration of 3dc, a NUPR1 isoform A inhibitor, increased, cell viability decreased, confirming the anticancer efficacy of 3dc (FIGS. 32, 33, and 34).

[18] = tested on: BT-20; test: cell viability, breast cancer cells; type: cell-based; details: as treatment concentration of 3dc increased
From the text: as §8

[19] = tested on: GBM-28; test: cell viability with increasing 3dc concentration; type: cell-based, human; details: as treatment concentration of 3dc increased
Protocol: as §1

[20] = tested on: GBM-37; test: cell viability with increasing 3dc concentration; type: cell-based, human; details: as treatment concentration of 3dc increased
Protocol: as §1

[21] = tested on: GBM-37; test: wound healing assay; type: cell-based, human; details: GBM-37 compared with GBM-28
Protocol: as §1

[22] = tested on: PC3; test: cell viability, prostate cancer cells; type: cell-based; details: as treatment concentration of 3dc increased
From the text: (§9) For prostate cancer cells, DU145 and PC3, as the treatment concentration of 3dc, a NUPR1 isoform A inhibitor, increased, cell viability decreased, confirming the anticancer efficacy of 3dc (FIG. 21).

[23] = tested on: DU145; test: cell viability, prostate cancer cells; type: cell-based; details: as treatment concentration of 3dc increased
From the text: as §9

[24] = tested on: SKOV3; test: cell viability, ovary cancer cells; type: cell-based; details: as treatment concentration of 3dc increased
From the text: (§10) For ovary cancer cells, Caov3 and SKOV3, as the treatment concentration of 3dc, a NUPR1 isoform A inhibitor, increased, cell viability decreased, confirming the anticancer efficacy of 3dc (FIG. 30).

[25] = tested on: Caov3; test: cell viability, ovary cancer cells; type: cell-based; details: as treatment concentration of 3dc increased
From the text: as §10

[26] = tested on: NCI-H1299; test: cell viability, lung cancer cells; type: cell-based; details: as treatment concentration of 3dc increased
From the text: (§11) For lung cancer cells, A549 and NCI-H1299, as the treatment concentration of 3dc, a NUPR1 isoform A inhibitor, increased, cell viability decreased, confirming the anticancer efficacy of 3dc (FIG. 26).

[27] = tested on: A549; test: cell viability, lung cancer cells; type: cell-based; details: as treatment concentration of 3dc increased
From the text: as §11

[28] = tested on: NUPR1 isoform A; test: NUPR1 isoform A mRNA expression level in GBM-28 and GBM-37; type: cell-based, human; details: GBM-28 and GBM-37 cell lines, treated versus untreated
Protocol: as §1

[29] = tested on: SNU790; test: cell viability, thyroid cancer cells; type: cell-based; details: as treatment concentration of 3dc increased
From the text: (§12) For thyroid cancer cells, SNU80 and SNU790, as the treatment concentration of 3dc, a NUPR1 isoform A inhibitor, increased, cell viability decreased, confirming the anticancer efficacy of 3dc (FIG. 25).

[30] = tested on: SNU80; test: cell viability, thyroid cancer cells; type: cell-based; details: as treatment concentration of 3dc increased
From the text: as §12

[31] = target: NUPR1 isoform A (Homo sapiens, UniProt O60356); test: calorimetric titration of 3dc and NUPR1 isoform A; details: read-out: binding affinity between the NUPR1 isoform A and 3dc
Protocol: Additionally, calorimetric titrations of 3dc and the NUPR1 isoform A were determined.

[32] = tested on: GBM-37; test: cell viability after 3dc pre-treatment and temozolomide (anticancer adjuvant); type: cell-based, human
Protocol: To confirm whether 3dc, a NUPR1 isoform A inhibitor, may be applied as an anticancer adjuvant, brain tumor cell GBM-37 was treated with temozolomide (TMZ) and 3dc, and cell viability was confirmed.
GBM-37 was pre-treated with 50 nM, 100 nM, and 200 nM of 3dc for 24 hours, and then was treated with 250 μM, 500 μM, 1000 μM, 2000 μM, and 4000 μM of temozolomide, respectively, and cell viability was confirmed.

[33] = tested on: NCI-H1299; test: mouse model intravitreally injected with lung cancer cells, tumor size; type: in vivo; details: NCI-H1299 in Balb/c nude mice, 1 mM 3dc, visually observed after 1, 2, 3 and 4 weeks
Protocol: as §3, with “lung” for “colon”, “A549” for “HT29”, “NCI-H1299” for “HCT116”

[34] = tested on: A549; test: as above; type: in vivo; details: A549 in Balb/c nude mice, 1 mM 3dc, visually observed after 1, 2, 3 and 4 weeks
Protocol: as §3, with “lung” for “colon”, “A549” for “HT29”, “NCI-H1299” for “HCT116”

[35] = GBM-28 overexpressing (OE) NUPR1 isoform A, MTS assay, compared to OE control group
[36] = GBM-37, gene ontology and network analysis

NUPR1 isoform A (Homo sapiens, UniProt O60356), sequence (O60356 1-100 isoform O60356-2): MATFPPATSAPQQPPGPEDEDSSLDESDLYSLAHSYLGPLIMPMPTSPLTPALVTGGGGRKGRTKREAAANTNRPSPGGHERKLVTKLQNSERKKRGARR

FC(F)(F)c1ccc2c(c1)N(CCCCN1CCC(N3CCCC3)CC1)c1ccccc1S2 [3dc, 10-(4-(4-(pyrrolidin-1-yl)piperidin-1-yl)butyl)-2-(trifluoromethyl)-10H-phenothiazine]
better inhibitory effect: inhibitory effect on cell migration [21]
better: invasion inhibitory effect [2] | proliferation inhibitory effect [2]
decreased: cell viability [4] | cell viability [5] | cell viability [8] | cell viability [9] | cell viability [10] | cell viability [11] | cell viability [12] | cell viability [13] | cell viability [17] | cell viability [18] | cell viability [19] | cell viability [20] | cell viability [22] | cell viability [23] | cell viability [24] | cell viability [25] | cell viability [26] | cell viability [27] | cell viability [29] | cell viability [30]
smaller and more transparent: tumor size compared with control group [6] | tumor size compared with control group [7] | tumor size compared with control group [33] | tumor size compared with control group [34]
better effect: cholecystokinin (CCK) results [3]
destroyed: basic cellular components such as DNA packaging complexes and nucleosomes [16, 36]
affected or down-regulated: genomic aberrations of coding genes: most chromosomal genes ([16]; GBM-37, based on the transcriptome analysis)
significantly inhibited: basic biological processes such as DNA packaging and protein-DNA complex assembly [16, 36] | basic molecular functions such as nucleic acid binding and RNA binding [16, 36]
89 µM: Kd [31]
down-regulated: genes related to essential cell phenomena such as DNA repair, cell migration, and cell cycle ([16]; GBM-37, 100 nM 3dc, cDNA microarray)
significantly decreased: mRNA expression level of NUPR1 isoform A [28]
significantly reduced: cell viability compared to the untreated control group ([32]; GBM-37, 2000 μM temozolomide, 3dc at 50 nM, 100 nM and 200 nM) | cell viability compared to the untreated control group ([32]; GBM-37 pre-treated 24 hours with 50, 100, 200 nM 3dc, then 250-4000 μM temozolomide)
inhibited: nuclear transfer of the NUPR1 isoform A [1] | cell proliferation ([14]; GBM-28, MTS assay, compared to untreated control group) | cell proliferation ([14]; GBM-28 overexpressing (OE) NUPR1 isoform A, 3dc treatment combined with siNUPR1a transfection, compared to OE control group) | cell proliferation [14, 35] | cell proliferation ([15]; GBM-37, 3dc treatment combined with siNUPR1a transfection) | cell proliferation ([15]; GBM-37, MTS assay)

siNUPR1a: siRNAs of SEQ ID NOs: 5 and 6 directed against NUPR1 isoform A (chain 1 GCCUAUGCCCACUUCACCUUU; chain 2 AGGUGAAGUGGGCAUAGGCUU; listed as RNA, chemistry not given here)
inhibited: cell proliferation [14, 35] | cell proliferation ([15]; GBM-37, MTS assay)
